No end group written: not given here.
B1: known peptide binder (11 residues) of the semi-synthetic Ribonuclease, PYVPVHFDASV (peptide)
peptide: PYVPVHFDASV
notes: also called WT; positive control; source: synthetic peptide

What was measured:
[1] = biological target: T1, semi-synthetic Ribonuclease (PDB ID 1SSC), immobilised as MBP-8xHis-1SSC (Bos taurus, UniProt P61823); test: biochemical; type: binding
T1 construct: made in house; host or cells: E. coli BL21 (DE3) T1R
T1 sequence (P61823 27-138 limits assumed): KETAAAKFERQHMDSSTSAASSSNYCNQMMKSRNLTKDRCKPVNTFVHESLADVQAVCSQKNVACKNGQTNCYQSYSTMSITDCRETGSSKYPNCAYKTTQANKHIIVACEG

[2] = biological target: T2, semi-synthetic Ribonuclease (PDB ID 1SSC), MBP-8xHis fusion construct (UniProt P61823 27-138); test: SPR; MBP-8xHis-1SSC immobilised to about 12000 RU by amine coupling on a CM5 chip; peptides as analytes, single-cycle kinetics, 2 nM to 20 uM; 25 °C; HBS-EP+ (10 mM HEPES pH 7.4, 3 mM EDTA, 150 mM NaCl, 0.05% Tween-20); Biacore 8K; 1:1 binding model; conditions: both partners purified
T2 construct: also called MBP-8xHis-1SSC; psfRNAseA; source: E. coli BL21 (DE3) T1R, purified (IMAC, size exclusion chromatography)
T2 sequence: T1 sequence (P61823 27-138 limits assumed)

| Molecule | Kd [1] [nM] | Kd [2] [nM] |
| --- | --- | --- |
| PYVPVHFDASV [PYVPVHFDASV] | 1220 | – |
| B1 | – | 1200 |
